Reference: BindingDB's records for patent US11440923 (2022)

Molecular target: T1, Induced myeloid leukemia cell differentiation protein Mcl-1 [K194A,K197A,R201A] (Homo sapiens, UniProt Q07820, K194A/K197A/R201A)
T1 construct: gene MCL1
Assay: Protein-Protein Interaction Assay: MCL-1/Noxa BH3 Peptide (MCL-1 Assay)
Protocol: The dose-dependent inhibition by the compounds described in this invention of the interaction between MCL-1 and the BH3 domain of Noxa (both human) was determined using a steady state binding competition assay with time-resolved fluorescence energy transfer (TR-FRET) readout. […] The MBP-MCL-1 was purchased from Beryllium (Bedford, Mass., USA). […] The Noxa BH3-derived peptide can be obtained from e.g. Biosyntan (Berlin, Germany).

T1 sequence (Q07820 whole entry K194A/K197A/R201A, looked up): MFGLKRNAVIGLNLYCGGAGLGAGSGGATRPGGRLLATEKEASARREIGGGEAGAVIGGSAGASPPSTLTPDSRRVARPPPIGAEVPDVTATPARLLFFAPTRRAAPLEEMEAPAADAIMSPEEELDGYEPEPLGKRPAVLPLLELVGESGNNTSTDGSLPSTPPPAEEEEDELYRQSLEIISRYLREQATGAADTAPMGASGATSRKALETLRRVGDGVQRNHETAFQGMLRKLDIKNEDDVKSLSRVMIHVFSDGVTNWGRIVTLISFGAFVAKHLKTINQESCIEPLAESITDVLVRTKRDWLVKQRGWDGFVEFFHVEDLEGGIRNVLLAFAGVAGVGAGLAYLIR

| Compound | IC50 [nM] |
| --- | --- |
| CCc1c2c(nn1C)C(CCC1CCOCC1)OCCCCn1c(C(=O)O)c(CCCOc3cccc4cc(F)ccc34)c3ccc(Cl)c-2c31 (racemic) [US11440923, Example 60] | 0.69 |
| CCc1c2c(nn1C)C1CCCCN1CCCCn1c(C(=O)O)c(CCCOc3cccc4ccccc34)c3ccc(Cl)c-2c31 (racemic) [US11440923, Example 102] | 0.94 |
| CCc1c2c(nn1C)C(CCN1CCOCC1)OCCCCn1c(C(=O)O)c(CCCOc3cccc4cc(F)ccc34)c3ccc(Cl)c-2c31 (single isomer, unassigned) [US11440923, Example 23] | 0.63 |
| CCc1c2c(nn1C)C(CCC1CCOCC1)OCCCCn1c(C(=O)O)c(CCCOc3cccc4cc(F)ccc34)c3ccc(Cl)c-2c31 (single isomer, unassigned) [US11440923, Example 63] | 0.88 |
| CCc1c2c(nn1C)C(CCN1CC(F)(F)C1)OCCCCn1c(C(=O)O)c(CCCOc3cccc4cc(F)ccc34)c3ccc(Cl)c-2c31 (single isomer, unassigned) [US11440923, Example 78] | 0.42 |
| CCC1OCCCCn2c(C(=O)O)c(CCCOc3cccc4ccccc34)c3ccc(Cl)c(c32)-c2c1nn(C)c2C (single isomer, unassigned; form 1) [US11440923, Example 29] | 1 |
| CCc1c2c(nn1C)C(C(F)(F)F)OCCCCn1c(C(=O)O)c(CCCOc3cccc4ccccc34)c3ccc(Cl)c-2c31 (single isomer, unassigned; form 1) [US11440923, Example 33] | 2.1 |
| Cc1c2c(nn1C)C(C1CC1)OCCCCn1c(C(=O)O)c(CCCOc3cccc4ccccc34)c3ccc(Cl)c-2c31 (single isomer, unassigned; form 1) [US11440923, Example 35] | 0.73 |
| CCc1c2c(nn1C)C(C1CC1)OCCCCn1c(C(=O)O)c(CCCOc3cccc4cc(F)ccc34)c3ccc(Cl)c-2c31 (single isomer, unassigned; form 1) [US11440923, Example 39] | 0.72 |
| CCc1c2c(nn1C)C(CCOC)OCCCCn1c(C(=O)O)c(CCCOc3cccc4cc(F)ccc34)c3ccc(Cl)c-2c31 (single isomer, unassigned; form 1) [US11440923, Example 42] | 0.33 |
| CCc1c2c(nn1C)C(CC(C)(C)O)OCCCCn1c(C(=O)O)c(CCCOc3cccc4cc(F)ccc34)c3ccc(Cl)c-2c31 (single isomer, unassigned; form 1) [US11440923, Example 53] | 0.41 |
| CCc1c2c(nn1C)C(CCC(C)(C)O)OCCCCn1c(C(=O)O)c(CCCOc3cccc4cc(F)ccc34)c3ccc(Cl)c-2c31 (single isomer, unassigned; form 1) [US11440923, Example 75] | 0.37 |
| CCC1OCCCCn2c(C(=O)O)c(CCCOc3cccc4ccccc34)c3ccc(Cl)c(c32)-c2c1nn(C)c2C (single isomer, unassigned; form 2) [US11440923, Example 30] | 200 |
| CCc1c2c(nn1C)C(C(F)(F)F)OCCCCn1c(C(=O)O)c(CCCOc3cccc4ccccc34)c3ccc(Cl)c-2c31 (single isomer, unassigned; form 2) [US11440923, Example 34] | 370 |
| Cc1c2c(nn1C)C(C1CC1)OCCCCn1c(C(=O)O)c(CCCOc3cccc4ccccc34)c3ccc(Cl)c-2c31 (single isomer, unassigned; form 2) [US11440923, Example 36] | 280 |
| CCc1c2c(nn1C)C(C1CC1)OCCCCn1c(C(=O)O)c(CCCOc3cccc4cc(F)ccc34)c3ccc(Cl)c-2c31 (single isomer, unassigned; form 2) [US11440923, Example 40] | 48 |
| CCc1c2c(nn1C)C(CCOC)OCCCCn1c(C(=O)O)c(CCCOc3cccc4cc(F)ccc34)c3ccc(Cl)c-2c31 (single isomer, unassigned; form 2) [US11440923, Example 43] | 88 |
| CCc1c2c(nn1C)C(CC(C)(C)O)OCCCCn1c(C(=O)O)c(CCCOc3cccc4cc(F)ccc34)c3ccc(Cl)c-2c31 (single isomer, unassigned; form 2) [US11440923, Example 54] | 47 |
| CCc1c2c(nn1C)C(CCC(C)(C)O)OCCCCn1c(C(=O)O)c(CCCOc3cccc4cc(F)ccc34)c3ccc(Cl)c-2c31 (single isomer, unassigned; form 2) [US11440923, Example 76] | 90 |
| Cc1c2c(nn1C)C(CCN1CCOCC1)OCCCCn1c(C(=O)O)c(CCCOc3cccc4cc(F)ccc34)c3ccc(Cl)c-2c31 (configuration not stated) [US11440923, Example 16] | 1.2 |
| Cc1c2c(nn1C)C(CCN1CCOCC1)OCCCCn1c(C(=O)O)c(CCCOc3cccc4cc(F)ccc34)c3ccc(F)c-2c31 (configuration not stated) [US11440923, Example 19] | 0.79 |
| CCc1c2c(nn1C)[C@@H](CCN1CCOCC1)OCCCCn1c(C(=O)O)c(CCCOc3cccc4cc(F)ccc34)c3ccc(Cl)c-2c31 [US11440923, Example 48] | 3.6 |
